Reference: paper PMC8157322, “Gd(III)–Pt(IV) theranostic contrast agents for tandem MR imaging and chemotherapy” (Chemical Science, 2020)

What was measured:
[1] = T1/T2 relaxivity measurements in PBS; type: physicochemical; details: 37 °C
Protocol: The T1 relaxivity (r1) and T2 relaxivity (r2) of 1, GP1, and GP2 were measured at both low (1.41 T) and high (7 T) magnetic field strength in phosphate-buffered saline (PBS) to quantify how well they behave as MR contrast agents. […] The relaxivity values for 1 are well within the range of what is expected for a small molecule Gd(III) complex.[34] […] At 7 T, there was little change in r1 for both agents, while both r2 values increased, as expected. […]
solution. These capillaries were imaged using a Bruker PharmaScan 7 T MR imaging spectrometer (Bruker BioSpin, Billerica, MA, USA). T1 relaxation times were measured using a rapid-acquisition rapid-echo (RARE-VTR) T1-map pulse sequence with static TE (10 ms) and […]
parameters were as follows: field of view (FOV) = 25 x 25 mm2, matrix size (MTX) = 256 x 256, number of axial slices = 5, slice thickness (SI) = 1.0 mm, and averages (NEX) = 4. T1 analysis was carried out using the image sequence analysis tool in Paravision 5.0 pl2 software (Bruker, Billerica, MA, USA) with monoexponential curve-fitting of image intensities of selected regions of interest (ROIs) for each axial slice. […]
(§1) Fig. S2 Graph of r1 of (A) GP1 measured at 1.41 T (B) GP1 measured at 7 T (C) GP2 measured at 1.41 T
(D) GP2 measured at 7 T (E) 1 measured at 1.41 T (F) 1 measured at 7 T. All measurements were taken in PBS at 37 °C (G) 1 measured at 1.41 T with 5 mM GSH (H) GP1 measured at 1.41 T with 5 mM GSH and (I) GP2 measured at 1.41 T with 5 mM GSH.
(§2) Table S1. r1 of GP1, GP2, and 1 in PBS with 5 mM glutathione at 37 °C
(§3) GP1 (5 mM GSH) GP2 (5 mM GSH) 1 (5 mM GSH)

[2] = Relaxivity after incubation in 5 mM GSH in PBS; type: physicochemical; details: 1.41 T, PBS with 5 mM glutathione, 37 °C
Protocol: This is possibly due to an increase in the rotational correlation time (τR) or a change in the inner sphere hydration number (q) of Gd(III). The differences in relaxivity of GP1 and GP2 compared to 1 offers the possibility of monitoring reduction of the agents by MR at both high and low field strength. To test this, GP1, GP2, and 1 were incubated in 5 mM GSH in PBS and the relaxivity was measured (see ESI ^†). The relaxivity of each converged to the same value (r1 of 4.4, 4.5, and 4.6 mM^−1 s^−1 for 1, GP1, and GP2 respectively), indicating the same Gd(III) species was formed after reduction. The significant change in r1 upon reduction of GP1 and GP2 theoretically could be used to monitor intracellular reduction by MR. However, further testing needs to be done to determine if these agents are suitable for this application.
as §1
(D) GP2 measured at 7 T (E) 1 measured at 1.41 T (F) 1 measured at 7 T. All measurements were taken
in PBS at 37 °C (G) 1 measured at 1.41 T with 5 mM GSH (H) GP1 measured at 1.41 T with 5 mM GSH
and (I) GP2 measured at 1.41 T with 5 mM GSH.
as §2, §3

[3] = Aqueous solubility (qualitative); type: physicochemical; details: aqueous solutions / solvents
[4] = tested on: porcine liver esterase (PLE); experiment: Stability in porcine liver esterase in PBS (HPLC-MS); type: in vitro ADME; details: PBS with 10 units/mL porcine liver esterase, 37 °C
Protocol: To ensure both agents remain stable in aqueous media under various conditions, they were dissolved in PBS, two types of cell culture media (MEM and RPMI-1640), pH 5 H2O, and porcine live esterase (PLE) in PBS and monitored over time by HPLC-MS. […]
Stability of GP1 and GP2 in various aqueous media. Aliquots of GP1 and GP2 were prepared from a stock with known mass checked by ICP-MS. An aliquot of each was dissolved in H2O and analyzed by HPLC-MS using an Atlantis C18 column (4.6 × 250 mm, 5 μm) and the following method: MeCN held at 0% for 3 min followed by a 15 min ramp to 100% MeCN (GP1 retention time: 10.9 min, GP2 retention time: 11.6 min). Aliquots of both were additionally dissolved in PBS, MEM, RPMI-1640, pH 5 H2O, PBS with 10 units/mL porcine liver esterase, 5 mM glutathione, and 5 mM sodium ascorbate, incubated in a shaker at 37 °C, and were analyzed by HPLC-MS at different time points using the same method. At each time point, the area of the peak of GP1 or GP2 was determined by integration and compared to the area of the peaks in […]

A2780 cells [5] = experiment: Cell viability assay (CellTiter-Glo 2.0); type: cell-based; details: A2780, 48 h incubation
Protocol: (§4) To assess the cytotoxicity of GP1 and GP2in vitro, cell viability assays were performed to determine the IC50 concentrations in three cancer cell lines (A2780, HeLa, and MCF-7). Table 2 summarizes the IC50 concentrations of both agents compared to those of cisplatin and carboplatin. […] For all cell lines, GP1 was less toxic than cisplatin but followed the same trend of highest toxicity in A2780 cells and least toxic in MCF-7 cells. GP1 releases cisplatin intracellularly, therefore the apparent difference in toxicity of the two is likely due to decreased cell permeability of GP1 caused by the Gd(III) complex. However, because GP1 is inert in the extracellular matrix, higher doses can be safely administered to account for the decreased cell permeability. […]
(§5) lines were grown in a humidified incubator at 37 °C and 5% CO2 and were harvested using 0.25% TrypLE. Cells were grown for 24 hours after plating before each experiment. All solutions were filtered through […] sterile filters before use.
(§6) Viability Assays. A2780, HeLa, and MCF-7 cells were plated at a density of 3,000 cells per well (100 µL) in an opaque white 96-well plate. Cells were dosed with 100 µL of solutions of GP1, GP2, cisplatin, or carboplatin in MEM and incubated for 48 hours (GP1 or cisplatin) or 72 hours (GP2 or carboplatin). After incubation, 50 µL CellTiter-Glo 2.0 (Promega, Madison, WI) was added to each well and the assay was carried out following the manufacturer’s protocol.
(§7) Luminescence of the wells was measured using a Synergy H1 microplate reader (BioTek, Winooski, VT). Viability was determined by comparing luminescence readings of the cells treated with agent to untreated control cells. […]

HeLa cells = experiment: Cell viability assay (CellTiter-Glo 2.0); type: cell-based; details: 48 h incubation
Protocol: as §4, §5, §6, §7

MCF-7 cells = experiment: Cell viability assay (CellTiter-Glo 2.0); type: cell-based; details: MCF-7, 48 h incubation
Protocol: as §4, §5, §6, §7

A2780 cells [6] = experiment: MR imaging of cell pellets at 7 T; type: cell-based; details: A2780, 7 T, 6 h incubation; cisplatin 7.5 μM, 1 100 μM, GP1 30 μM, GP2 60 μM

## [NH2][Pt]([NH2])([OH])([Cl])([Cl])[O]C(=O)CCCCCN1CCN2CCN3CCN(CC1)CC(=O)[O][Gd]([O]C(=O)C2)[O]C(=O)C3 [GP1]
[1]; 1.41 T
  r1 (T1 relaxivity): 7.0 mM⁻¹ s⁻¹
[1]; 7 T
  r1 (T1 relaxivity): 7.1 mM⁻¹ s⁻¹
[2]
  r1 with 5 mM GSH: 4.5 mM⁻¹ s⁻¹
[3]
  Solubility: readily soluble in aqueous solutions
[4]
  Decrease in stability in presence of PLE: ~10%
A2780 cells [5]
  IC50: 29.8 ± 2.5 µM
HeLa cells
  IC50: 49.3 ± 1.3 µM
MCF-7 cells
  IC50: 113 ± 4 µM
A2780 cells [6]
  T1 of cell pellet: 1708 ± 27 ms
  Δ R1 (increase in R1 vs untreated control): 36%
